Molecular target: T1, PaIGPS (Pseudomonas aeruginosa, UniProt P20577)
T1 construct: gene trpC
T1 sequence (P20577 1-278): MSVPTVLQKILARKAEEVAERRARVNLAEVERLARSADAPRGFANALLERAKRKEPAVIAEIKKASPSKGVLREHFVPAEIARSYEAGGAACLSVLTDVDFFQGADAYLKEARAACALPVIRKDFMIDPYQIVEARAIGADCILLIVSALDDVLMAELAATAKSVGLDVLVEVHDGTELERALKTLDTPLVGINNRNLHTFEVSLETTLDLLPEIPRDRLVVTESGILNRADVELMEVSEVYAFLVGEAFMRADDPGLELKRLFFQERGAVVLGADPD
Test: X-ray crystal structure, […] Å
Assay type: binding
Conditions: active site, nonreactive substrate analog; seven of eight chains; pH 3.4 crystals

## O=C(O)c1ccccc1NC[C@@H](O)[C@H](O)[C@H](O)COP(=O)(O)O [rCdRP]
  X-ray crystal structure, 2.1 Å: The substrate analog, rCdRP, is bound in the active site of the seven more ordered chains.

— article PMC7681013, “Structure and kinetics of indole-3-glycerol phosphate synthase from Pseudomonas aeruginosa: Decarboxylation is not essential for indole formation” (The Journal of Biological Chemistry, 2020)
